Assay results published in US12590953B2, “Methods for screening cereblon modifying compounds” (CELGENE CORPORATION, priority 2018, dated 2026).
Peptide text beside a SMILES is read from it. * marks the point of attachment. Cbz = O=C(OCc1ccccc1)*

Columns and labels:
SALL4 = molecular target: T1, SALL4 (Homo sapiens, UniProt Q96SW2+Q9UJQ4); assay: SALL4 protein level in human iPS cells, immunoblot; assay type: cell-based; conditions: human iPS cells; 1 μM MLN4924 or 10 μM MG132 for 6 hours with thalidomide
T1 construct: host or cells: human iPS cells (CRBN wild-type and CRBN knock-out)
Protocol: Immunoblot analysis of whole cell lysates of CRBN wild-type (WT) and CRBN knock-out (−/−) human iPS cells was performed. Cells were treated with DMSO vehicle control (−) or thalidomide (Thal) at indicated concentrations for 16 hours (n=4, biological replicates).
Immunoblot analysis of whole cell lysates of human iPS cells treated with DMSO (−) or Thal (+) in the presence or absence of 1 μM MLN4924 or 10 μM MG132 for 6 hours were performed (n=2, biological replicates).
Human iPS cell lines ACS-1019 and ACS-1011 (derived from healthy donors) were obtained from ATCC. The hiPSCs were maintained in mTESR-1 medium (Stem Cell Technologies) in cell culture plates coated with a thin layer of Matrigel (BD Biosciences) incubated at 37° C. in a humidified 5% CO2 incubator according to the manufacturer's instruction. Cells were split through mechanic passaging with a glass pipet and enzymatically digestion with Dispase or Accutase every 2 to 3 days.
Human iPSCs, ACS-1019 was transduced with lentiviral vectors expressing CRISPR-Cas9 and small guide RNA targeting cereblon for 4 days. The resulting colonies were amplified and screened for cereblon knockout by immunoblot analysis with anti-CRBN65 antibody (Celgene).

[1] = molecular target: T2, endogenous SALL4 in NCCIT, NETRA-2 c1.D1 and AN3-CA cancer cell lines (Homo sapiens, UniProt Q96SW2+Q9UJQ4); assay: Degradation of endogenous SALL4 in cancer cell lines, western blot; assay type: cell-based; conditions: 16 hour treatment; anti-SALL4 western blot
T2 construct: endogenous in cells; host or cells: NCCIT, NETRA-2 c1.D1 and AN3-CA cancer cell lines

[2] = test system: SALL4 binding to cereblon; assay type: cell-based, human
Protocol: Binding of full length SALL4 to cereblon in cells was then tested by co-immunoprecipitation (see FIG. 3). HA-tagged WT, G416A, or G600A SALL4 was immunoprecipitated from cells, and the level of co-purifying cereblon was assessed by western blot. Briefly, a Lenti-x 293 cell line with a CRISPR-cas9 knock-out of cereblon and stable expression of HA-tagged SALL4 or SALL4 mutants was transfected with either GST-cereblon or empty vector. […] The amount of co-purifying GST-cereblon was then assessed by western blot.

ZFP91 = molecular target: T3, ZFP91 (Homo sapiens, UniProt Q96JP5+Q96SW2); assay: Degradation of ZFP91 in Lenti-x 293 cells (control substrate); assay type: cell-based; conditions: Lenti-x 293 cell lines expressing cereblon
T3 construct: endogenous in cells; host or cells: Lenti-x 293 cell line with CRISPR-cas9 cereblon knock-out, transfected with GST-cereblon
T3 sequence (Q96JP5 2-570 limits assumed): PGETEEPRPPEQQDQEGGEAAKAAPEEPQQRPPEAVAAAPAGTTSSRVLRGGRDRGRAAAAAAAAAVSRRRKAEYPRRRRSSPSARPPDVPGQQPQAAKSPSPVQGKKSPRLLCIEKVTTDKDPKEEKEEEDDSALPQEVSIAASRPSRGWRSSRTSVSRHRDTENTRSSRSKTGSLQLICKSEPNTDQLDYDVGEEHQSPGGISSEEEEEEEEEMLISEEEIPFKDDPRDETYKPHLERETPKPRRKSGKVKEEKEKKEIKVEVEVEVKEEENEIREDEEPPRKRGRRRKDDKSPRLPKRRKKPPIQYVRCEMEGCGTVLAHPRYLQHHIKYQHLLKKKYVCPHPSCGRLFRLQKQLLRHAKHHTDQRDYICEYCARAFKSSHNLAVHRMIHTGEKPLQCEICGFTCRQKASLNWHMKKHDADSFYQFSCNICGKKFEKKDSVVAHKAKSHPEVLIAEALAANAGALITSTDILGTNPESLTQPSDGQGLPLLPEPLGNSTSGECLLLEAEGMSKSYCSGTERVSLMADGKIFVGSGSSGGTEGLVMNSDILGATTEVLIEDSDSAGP
T3 sequence (Q96SW2 whole entry): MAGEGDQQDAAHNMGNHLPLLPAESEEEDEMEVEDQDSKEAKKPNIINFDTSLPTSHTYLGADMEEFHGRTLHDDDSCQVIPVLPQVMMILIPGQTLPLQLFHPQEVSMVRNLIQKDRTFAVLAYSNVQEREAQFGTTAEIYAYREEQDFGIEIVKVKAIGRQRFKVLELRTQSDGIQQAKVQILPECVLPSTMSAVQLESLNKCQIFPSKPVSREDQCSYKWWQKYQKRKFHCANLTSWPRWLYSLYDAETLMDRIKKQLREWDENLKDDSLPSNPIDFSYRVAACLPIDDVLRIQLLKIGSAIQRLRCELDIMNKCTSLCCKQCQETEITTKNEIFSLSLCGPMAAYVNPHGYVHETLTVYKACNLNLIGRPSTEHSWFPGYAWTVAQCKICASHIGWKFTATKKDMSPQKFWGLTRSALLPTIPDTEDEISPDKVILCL
T3 sequence (Q16531 whole entry partner): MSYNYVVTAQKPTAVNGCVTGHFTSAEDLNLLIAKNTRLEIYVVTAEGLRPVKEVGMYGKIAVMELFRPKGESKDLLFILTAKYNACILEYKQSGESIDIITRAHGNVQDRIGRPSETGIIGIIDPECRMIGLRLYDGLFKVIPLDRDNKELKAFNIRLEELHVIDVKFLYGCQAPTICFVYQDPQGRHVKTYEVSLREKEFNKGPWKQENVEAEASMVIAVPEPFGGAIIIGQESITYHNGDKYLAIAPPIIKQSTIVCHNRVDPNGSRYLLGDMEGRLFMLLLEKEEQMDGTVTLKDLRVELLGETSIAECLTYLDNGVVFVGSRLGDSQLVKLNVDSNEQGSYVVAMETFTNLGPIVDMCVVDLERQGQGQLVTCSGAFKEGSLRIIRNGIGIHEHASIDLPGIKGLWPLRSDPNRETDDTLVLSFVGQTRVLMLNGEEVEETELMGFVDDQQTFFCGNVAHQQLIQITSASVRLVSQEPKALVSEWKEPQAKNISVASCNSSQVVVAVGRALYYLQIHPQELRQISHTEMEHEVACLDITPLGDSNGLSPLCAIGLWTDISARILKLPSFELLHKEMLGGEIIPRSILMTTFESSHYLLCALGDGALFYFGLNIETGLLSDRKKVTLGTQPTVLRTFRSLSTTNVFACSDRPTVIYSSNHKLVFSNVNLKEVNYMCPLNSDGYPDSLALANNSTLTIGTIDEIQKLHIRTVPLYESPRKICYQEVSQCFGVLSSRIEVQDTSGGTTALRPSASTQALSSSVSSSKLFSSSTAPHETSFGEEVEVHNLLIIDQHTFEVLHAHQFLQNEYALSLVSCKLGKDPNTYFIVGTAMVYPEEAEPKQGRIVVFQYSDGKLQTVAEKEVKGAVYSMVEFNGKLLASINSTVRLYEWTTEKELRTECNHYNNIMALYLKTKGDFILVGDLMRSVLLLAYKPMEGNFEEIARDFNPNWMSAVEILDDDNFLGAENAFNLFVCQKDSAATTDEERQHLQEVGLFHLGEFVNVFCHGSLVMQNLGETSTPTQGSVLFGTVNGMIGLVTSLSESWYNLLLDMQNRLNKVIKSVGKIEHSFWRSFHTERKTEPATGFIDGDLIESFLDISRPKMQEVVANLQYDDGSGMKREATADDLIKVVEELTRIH

T1 sequence (Q9UJQ4 whole entry): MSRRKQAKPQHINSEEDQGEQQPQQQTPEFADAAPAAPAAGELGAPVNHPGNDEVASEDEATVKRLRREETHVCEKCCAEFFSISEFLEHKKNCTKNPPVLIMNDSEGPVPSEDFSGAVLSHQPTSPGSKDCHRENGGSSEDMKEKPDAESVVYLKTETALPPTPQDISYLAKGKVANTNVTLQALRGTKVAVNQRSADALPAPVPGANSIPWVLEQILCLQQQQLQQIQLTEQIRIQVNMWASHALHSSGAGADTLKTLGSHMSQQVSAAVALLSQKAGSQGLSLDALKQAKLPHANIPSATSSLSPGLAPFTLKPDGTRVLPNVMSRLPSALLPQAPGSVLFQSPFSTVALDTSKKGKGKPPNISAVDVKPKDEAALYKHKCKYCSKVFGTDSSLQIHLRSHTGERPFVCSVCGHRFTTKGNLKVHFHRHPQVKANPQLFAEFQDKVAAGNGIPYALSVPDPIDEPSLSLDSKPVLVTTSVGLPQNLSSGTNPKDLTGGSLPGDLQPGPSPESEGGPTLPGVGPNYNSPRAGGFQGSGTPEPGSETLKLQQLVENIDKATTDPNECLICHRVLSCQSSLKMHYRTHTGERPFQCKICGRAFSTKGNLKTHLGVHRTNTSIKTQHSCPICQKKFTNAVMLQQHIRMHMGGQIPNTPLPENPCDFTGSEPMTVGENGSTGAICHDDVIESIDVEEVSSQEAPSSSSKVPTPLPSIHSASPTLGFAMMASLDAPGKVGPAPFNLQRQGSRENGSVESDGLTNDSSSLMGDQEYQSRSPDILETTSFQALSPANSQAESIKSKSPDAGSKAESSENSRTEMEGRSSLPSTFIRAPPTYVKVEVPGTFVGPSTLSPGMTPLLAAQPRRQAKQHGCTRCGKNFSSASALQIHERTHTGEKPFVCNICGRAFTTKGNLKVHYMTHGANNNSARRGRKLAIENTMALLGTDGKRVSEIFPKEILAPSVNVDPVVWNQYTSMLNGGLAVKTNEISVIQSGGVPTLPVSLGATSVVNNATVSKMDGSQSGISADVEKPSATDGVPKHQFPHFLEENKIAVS
T1 sequence (Q96SW2 whole entry): as the sequence (Q96SW2 whole entry) above
T1 sequence (Q16531 whole entry partner): as the sequence (Q16531 whole entry partner) above

## CC(C)C[C@@H](C=O)NC(=O)[C@H](CC(C)C)NC(=O)[C@H](CC(C)C)NC(=O)OCc1ccccc1 [MG132] (Cbz-Leu-Leu-Leu-aldehyde)
SALL4
  Effect on thalidomide-induced reduction in SALL4 protein levels: prevented

## NS(=O)(=O)OC[C@@H]1C[C@@H](n2ccc3c(N[C@H]4CCc5ccccc54)ncnc32)C[C@@H]1O [MLN4924]
SALL4
  Effect on thalidomide-induced reduction in SALL4 protein levels: prevented

## Nc1cccc2c1C(=O)N(C1CCC(=O)NC1=O)C2=O (stereo not shown) [pomalidomide]
[1]
  Degradation of endogenous SALL4: Significant compound-dependent degradation of endogenous SALL4 was observed
[2]; HA-tagged G416A SALL4, anti-HA pull-down
  Binding of G416A SALL4 to cereblon: disrupted the binding significantly
[2]; HA-tagged G600A SALL4, anti-HA pull-down
  Binding of G600A SALL4 to cereblon: strong, compound-dependent binding to cereblon
[2]; HA-tagged WT SALL4, anti-HA pull-down
  Binding of WT SALL4 to cereblon (co-purifying GST-cereblon, western blot): strong, compound-dependent binding to cereblon
ZFP91
  ZFP91 degradation: exhibited compound-dependent degradation in all cell lines expressing cereblon
